From US6626122B2, “Deactivatable biocides in ballast water” (Chevron U.S.A. Inc, priority 2001, dated 2003)
In brackets after ≈: the same amount, converted by molar mass. Where two headings read alike, the source gives them in different places.

Legend:
[1] = test system: bacterial inoculum; type: cell-based; details: for Growth, nitrogen compound control: control without glutaraldehyde; for Growth, nitrogen compound control / Growth, Neutralization of Biocides with Nitrogen Compounds: n-C16; for neutralizing 10 ppm of glutaraldehyde: two moles per glutaraldehyde; for Growth, Neutralization of Biocides with Nitrogen Compounds: with 10 ppm glutaraldehyde, two moles nitrogen compound per glutaraldehyde
Source text: The different nitrogen-containing compounds evaluated include the following: […]

[2] = test system: bacteria; assay: Neutralization of biocides - H2O2 and NH4Cl; type: cell-based; details: for microbial growth: after 14 days, 1, 10 or 100 ppm glutaraldehyde mixed with five times molar excess of the agent; for neutralizing biocides (glutaraldehyde): five times molar excess over 1, 10 or 100 ppm glutaraldehyde
Protocol: In this experiment, minimal medium containing 1, 10 or 100 ppm of glutaraldehyde was mixed with a five times molar excess of H2O2 or NH4Cl. Hydrocarbonaceous product and bacteria were then added to the mixture.

[3] = test system: bacterial inoculum; assay: Evaluation of biocides: inhibition of growth on FT diesel and ALAD diesel; type: cell-based, alkane degrading organisms; further: key: −: No Growth; +: Growth (White Unless Otherwise Indicated)
Protocol: The ability of biocides to inhibit growth on a FT diesel and a low aromatics diesel fuel from Example 1 was investigated.
Test Conditions: 90 ml of growth media and 10 ml of either FT diesel or low sulfur (ALAD) diesel was added to 250 ml flasks. […] In addition to the 2 alkynes, glutaraldehyde (glutaric dialdehyde 50%), was tested. The following summarizes the test conditions:
100 ppm inhibitor (on a total test volume basis or 1000 ppm in diesel)
1% inhibitor (on a total test volume basis or 10% in diesel).
After inoculation, the flasks were place on a shaker-table (135 rpm) at room temperature and observed daily.

[4] = in vivo; details: Cyprinodon variegatus (sheepshead minnow, larval), 96 h, control experiment, separate compounds
Protocol: (§1) […]. EPA/600/4-90/027F Washington, D.C.) conducted at Pacific Eco-Risk Laboratories, Martinez, Calif.
(§2) LOEC is the Lowest Observable Effect Concentration and is defined as the minimum concentration where mortality is observed for the test species. […] LC-50, the concentration that will cause mortality of 50% of the organisms tested within 96 h, is a calculated value based on all observations.
(§3) The solutions were mixed for 48 hours prior to the start of the bioassays. The solutions were diluted to perform bioassays at starting glutaraldehyde concentrations of 100, 50, 37.5, 25, and 10.5 mg/L. The results are summarized in Table X.

[5] = test system: Larval Sheepshead Minnow (Cyprinodon variegatus); assay: in vivo; details: Cyprinodon variegatus (sheepshead minnow), 96 h
Protocol: as §1, §2, §3

[6] = FT Diesel + 1 Wt % biocide, Day 0
[7] = FT Diesel + 1 Wt % biocide, Day 1
[8] = FT Diesel + 1 Wt % biocide, Day 5
[9] = FT Diesel + 1 Wt % biocide, Day 7
[10] = FT Diesel + 1 Wt % biocide, Day 8
[11] = FT Diesel + 1 Wt % biocide, Day 19
[12] = FT Diesel + 100 ppm biocide, Day 0
[13] = FT Diesel + 100 ppm biocide, Day 1
[14] = FT Diesel + 100 ppm biocide, Day 5
[15] = FT Diesel + 100 ppm biocide, Day 7
[16] = FT Diesel + 100 ppm biocide, Day 8
[17] = FT Diesel + 100 ppm biocide, Day 19
[18] = LA Diesel + 1 Wt % biocide, Day 0
[19] = LA Diesel + 1 Wt % biocide, Day 1
[20] = LA Diesel + 1 Wt % biocide, Day 5
[21] = LA Diesel + 1 Wt % biocide, Day 7
[22] = LA Diesel + 1 Wt % biocide, Day 8
[23] = LA Diesel + 1 Wt % biocide, Day 19
[24] = LA Diesel + 100 ppm biocide, Day 0
[25] = LA Diesel + 100 ppm biocide, Day 1
[26] = LA Diesel + 100 ppm biocide, Day 5
[27] = LA Diesel + 100 ppm biocide, Day 7
[28] = LA Diesel + 100 ppm biocide, Day 8
[29] = LA Diesel + 100 ppm biocide, Day 19

OCCNCCO [DEA, Diethanolamine]
Growth, nitrogen compound control ([1]; Time 0 days): − | Growth, nitrogen compound control ([1]; Time 1 days): − | Growth, nitrogen compound control ([1]; Time 2 days): − | Growth, nitrogen compound control ([1]; Time 6 days): + | Growth, nitrogen compound control ([1]; Time 7 days): + | Growth, nitrogen compound control ([1]; Time 9 days): + | Growth, nitrogen compound control ([1]; Time 13 days): + | Growth, nitrogen compound control ([1]; Time 20 days): − | neutralizing 10 ppm of glutaraldehyde [1]: effective | Growth, Neutralization of Biocides with Nitrogen Compounds ([1]; Time 0 days): − | Growth, Neutralization of Biocides with Nitrogen Compounds ([1]; Time 1 days): + | Growth, Neutralization of Biocides with Nitrogen Compounds ([1]; Time 2 days): + | Growth, Neutralization of Biocides with Nitrogen Compounds ([1]; Time 6 days): + | Growth, Neutralization of Biocides with Nitrogen Compounds ([1]; Time 7 days): + | Growth, Neutralization of Biocides with Nitrogen Compounds ([1]; Time 9 days): + | Growth, Neutralization of Biocides with Nitrogen Compounds ([1]; Time 13 days): + | Growth, Neutralization of Biocides with Nitrogen Compounds ([1]; Time 20 days): +

OO [H2O2]
microbial growth [2]: no growth | neutralizing biocides (glutaraldehyde) [2]: not effective

C#CCCCC [H, 1-hexyne]
Growth, Test Results on Fischer-Tropsch Diesel Fuel [3, 6]: − | Growth, Test Results on Fischer-Tropsch Diesel Fuel [3, 7]: − | Growth, Test Results on Fischer-Tropsch Diesel Fuel [3, 8]: − | Growth, Test Results on Fischer-Tropsch Diesel Fuel [3, 9]: − | Growth, Test Results on Fischer-Tropsch Diesel Fuel [3, 10]: − | Growth, Test Results on Fischer-Tropsch Diesel Fuel [3, 11]: − | Growth, Test Results on Fischer-Tropsch Diesel Fuel [3, 12]: − | Growth, Test Results on Fischer-Tropsch Diesel Fuel [3, 13]: − | Growth, Test Results on Fischer-Tropsch Diesel Fuel [3, 14]: + | Growth, Test Results on Fischer-Tropsch Diesel Fuel [3, 15]: + | Growth, Test Results on Fischer-Tropsch Diesel Fuel [3, 16]: + | Growth, Test Results on Fischer-Tropsch Diesel Fuel [3, 17]: + | Growth, Test Results on ALAD Diesel Fuel [3, 18]: − | Growth, Test Results on ALAD Diesel Fuel [3, 19]: − | Growth, Test Results on ALAD Diesel Fuel [3, 20]: − | Growth, Test Results on ALAD Diesel Fuel [3, 21]: − | Growth, Test Results on ALAD Diesel Fuel [3, 22]: − | Growth, Test Results on ALAD Diesel Fuel [3, 23]: − | Growth, Test Results on ALAD Diesel Fuel [3, 24]: − | Growth, Test Results on ALAD Diesel Fuel [3, 25]: − | Growth, Test Results on ALAD Diesel Fuel [3, 26]: + | Growth, Test Results on ALAD Diesel Fuel [3, 27]: + | Growth, Test Results on ALAD Diesel Fuel [3, 28]: + | Growth, Test Results on ALAD Diesel Fuel [3, 29]: +

NCCO [MEA, Monoethanolamine]
Growth, nitrogen compound control ([1]; Time 0 days): − | Growth, nitrogen compound control ([1]; Time 1 days): − | Growth, nitrogen compound control ([1]; Time 2 days): − | Growth, nitrogen compound control ([1]; Time 6 days): − | Growth, nitrogen compound control ([1]; Time 7 days): + | Growth, nitrogen compound control ([1]; Time 9 days): + | Growth, nitrogen compound control ([1]; Time 13 days): + | Growth, nitrogen compound control ([1]; Time 20 days): + | neutralizing 10 ppm of glutaraldehyde [1]: effective | Growth, Neutralization of Biocides with Nitrogen Compounds ([1]; Time 0 days): − | Growth, Neutralization of Biocides with Nitrogen Compounds ([1]; Time 1 days): − | Growth, Neutralization of Biocides with Nitrogen Compounds ([1]; Time 2 days): − | Growth, Neutralization of Biocides with Nitrogen Compounds ([1]; Time 6 days): + | Growth, Neutralization of Biocides with Nitrogen Compounds ([1]; Time 7 days): + | Growth, Neutralization of Biocides with Nitrogen Compounds ([1]; Time 9 days): + | Growth, Neutralization of Biocides with Nitrogen Compounds ([1]; Time 13 days): + | Growth, Neutralization of Biocides with Nitrogen Compounds ([1]; Time 20 days): + | LC50 at 96 h [4]: 1500 µg/mL (≈ 24.6 mM) | LOEC [5]: 1700 mg/L | NOEC [5]: 1000 mg/L

Cl.N [NH4Cl]
microbial growth [2]: no growth | neutralizing biocides (glutaraldehyde) [2]: not effective

C#CCO [P, Propargyl alcohol]
Growth, Test Results on Fischer-Tropsch Diesel Fuel [3, 6]: − | Growth, Test Results on Fischer-Tropsch Diesel Fuel [3, 7]: − | Growth, Test Results on Fischer-Tropsch Diesel Fuel [3, 8]: − | Growth, Test Results on Fischer-Tropsch Diesel Fuel [3, 9]: − | Growth, Test Results on Fischer-Tropsch Diesel Fuel [3, 10]: − | Growth, Test Results on Fischer-Tropsch Diesel Fuel [3, 11]: − | Growth, Test Results on Fischer-Tropsch Diesel Fuel [3, 12]: − | Growth, Test Results on Fischer-Tropsch Diesel Fuel [3, 13]: − | Growth, Test Results on Fischer-Tropsch Diesel Fuel [3, 14]: − | Growth, Test Results on Fischer-Tropsch Diesel Fuel [3, 15]: + | Growth, Test Results on Fischer-Tropsch Diesel Fuel [3, 16]: + | Growth, Test Results on Fischer-Tropsch Diesel Fuel [3, 17]: + | Growth, Test Results on ALAD Diesel Fuel [3, 18]: − | Growth, Test Results on ALAD Diesel Fuel [3, 19]: − | Growth, Test Results on ALAD Diesel Fuel [3, 20]: − | Growth, Test Results on ALAD Diesel Fuel [3, 21]: − | Growth, Test Results on ALAD Diesel Fuel [3, 22]: − | Growth, Test Results on ALAD Diesel Fuel [3, 23]: − | Growth, Test Results on ALAD Diesel Fuel [3, 24]: − | Growth, Test Results on ALAD Diesel Fuel [3, 25]: − | Growth, Test Results on ALAD Diesel Fuel [3, 26]: + Yellow | Growth, Test Results on ALAD Diesel Fuel [3, 27]: + Yellow | Growth, Test Results on ALAD Diesel Fuel [3, 28]: + Yellow | Growth, Test Results on ALAD Diesel Fuel [3, 29]: + Yellow

Nc1ccccc1 [aniline, Aniline]
toxicity of the nitrogen-containing compound itself (microbial growth) [1]: excessively toxic | Growth, nitrogen compound control ([1]; Time 0 days): − | Growth, nitrogen compound control ([1]; Time 1 days): − | Growth, nitrogen compound control ([1]; Time 2 days): − | Growth, nitrogen compound control ([1]; Time 6 days): − | Growth, nitrogen compound control ([1]; Time 7 days): − | Growth, nitrogen compound control ([1]; Time 9 days): − | Growth, nitrogen compound control ([1]; Time 13 days): − | Growth, nitrogen compound control ([1]; Time 20 days): − | Growth, Neutralization of Biocides with Nitrogen Compounds ([1]; Time 0 days): − | Growth, Neutralization of Biocides with Nitrogen Compounds ([1]; Time 1 days): − | Growth, Neutralization of Biocides with Nitrogen Compounds ([1]; Time 2 days): − | Growth, Neutralization of Biocides with Nitrogen Compounds ([1]; Time 6 days): − | Growth, Neutralization of Biocides with Nitrogen Compounds ([1]; Time 7 days): − | Growth, Neutralization of Biocides with Nitrogen Compounds ([1]; Time 9 days): − | Growth, Neutralization of Biocides with Nitrogen Compounds ([1]; Time 13 days): − | Growth, Neutralization of Biocides with Nitrogen Compounds ([1]; Time 20 days): −

CCNCC [diethylamine, Diethylamine]
Growth, nitrogen compound control ([1]; Time 0 days): − | Growth, nitrogen compound control ([1]; Time 1 days): − | Growth, nitrogen compound control ([1]; Time 2 days): − | Growth, nitrogen compound control ([1]; Time 6 days): + | Growth, nitrogen compound control ([1]; Time 7 days): + | Growth, nitrogen compound control ([1]; Time 9 days): + | Growth, nitrogen compound control ([1]; Time 13 days): + | Growth, nitrogen compound control ([1]; Time 20 days): + | neutralizing 10 ppm of glutaraldehyde [1]: effective | Growth, Neutralization of Biocides with Nitrogen Compounds ([1]; Time 0 days): − | Growth, Neutralization of Biocides with Nitrogen Compounds ([1]; Time 1 days): − | Growth, Neutralization of Biocides with Nitrogen Compounds ([1]; Time 2 days): − | Growth, Neutralization of Biocides with Nitrogen Compounds ([1]; Time 6 days): + | Growth, Neutralization of Biocides with Nitrogen Compounds ([1]; Time 7 days): + | Growth, Neutralization of Biocides with Nitrogen Compounds ([1]; Time 9 days): + | Growth, Neutralization of Biocides with Nitrogen Compounds ([1]; Time 13 days): + | Growth, Neutralization of Biocides with Nitrogen Compounds ([1]; Time 20 days): +
